Test results as given in publication PMC5392334, “Discovery and characterization of a novel irreversible EGFR mutants selective and potent kinase inhibitor CHMFL-EGFR-26 with a distinct binding mode” (Oncotarget, 2017).
pIC50: −log10 of the molar value.

Assays:
[1] = biological target: T1, STK35 (Homo sapiens, UniProt Q8TDR2); assay: KinomeScan; type: binding; conditions: read-out: % control
T1 construct: purchased DiscoveRx KINOMEscan

[2] = biological target: T2, GRK7 (Homo sapiens, UniProt Q8WTQ7); assay: KinomeScan; type: binding; conditions: read-out: % control
T2 construct: purchased DiscoveRx KINOMEscan

[3] = biological target: T3, YANK2 (Homo sapiens, UniProt Q9NY57); assay: KinomeScan; type: binding; conditions: read-out: % control
T3 construct: purchased DiscoveRx KINOMEscan

[4] = biological target: T4, DAPK1 (Homo sapiens, UniProt P53355); assay: KinomeScan; type: binding; conditions: read-out: % control
T4 construct: purchased DiscoveRx KINOMEscan

[5] = biological target: T5, CDK4-cyclinD3 (Homo sapiens, UniProt P11802); assay: KinomeScan; type: binding; conditions: read-out: % control
T5 construct: purchased DiscoveRx KINOMEscan

[6] = biological target: T6, MAK (Homo sapiens, UniProt P20794); assay: KinomeScan; type: binding; conditions: read-out: % control
T6 construct: purchased DiscoveRx KINOMEscan

[7] = biological target: T7, SRPK2 (Homo sapiens, UniProt P78362); assay: KinomeScan; type: binding; conditions: read-out: % control
T7 construct: purchased DiscoveRx KINOMEscan

[8] = biological target: T8, RSK3(Kin.Dom.2-C-terminal) (Homo sapiens, UniProt Q15349); assay: KinomeScan; type: binding; conditions: read-out: % control
T8 construct: RSK3(Kin.Dom.2-C-terminal); purchased DiscoveRx KINOMEscan

[9] = biological target: T9, PRKCH (Homo sapiens, UniProt P24723); assay: KinomeScan; type: binding; conditions: read-out: % control
T9 construct: purchased DiscoveRx KINOMEscan

[10] = biological target: T10, EPHA6 (Homo sapiens, UniProt Q9UF33); assay: KinomeScan; type: binding; conditions: read-out: % control
T10 construct: purchased DiscoveRx KINOMEscan

[11] = biological target: T11, PIM2 (Homo sapiens, UniProt Q9P1W9); assay: KinomeScan; type: binding; conditions: read-out: % control
T11 construct: purchased DiscoveRx KINOMEscan

[12] = biological target: T12, PAK4 (Homo sapiens, UniProt O96013); assay: KinomeScan; type: binding; conditions: read-out: % control
T12 construct: purchased DiscoveRx KINOMEscan

[13] = biological target: T13, RIOK3 (Homo sapiens, UniProt O14730); assay: KinomeScan; type: binding; conditions: read-out: % control
T13 construct: purchased DiscoveRx KINOMEscan

[14] = biological target: T14, ROCK2 (Homo sapiens, UniProt O75116); assay: KinomeScan; type: binding; conditions: read-out: % control
T14 construct: purchased DiscoveRx KINOMEscan

[15] = biological target: T15, ERK8 (Homo sapiens, UniProt Q8TD08); assay: KinomeScan; type: binding; conditions: read-out: % control
T15 construct: purchased DiscoveRx KINOMEscan

[16] = biological target: T16, CDC2L1 (Homo sapiens, UniProt P21127); assay: KinomeScan; type: binding; conditions: read-out: % control
T16 construct: purchased DiscoveRx KINOMEscan

[17] = biological target: T17, FAK (Homo sapiens, UniProt Q05397); assay: KinomeScan; type: binding; conditions: read-out: % control
T17 construct: purchased DiscoveRx KINOMEscan

[18] = biological target: T18, EGFR(G719C) (Homo sapiens, UniProt P00533, G719C); assay: KinomeScan; type: binding; conditions: read-out: % control
T18 construct: purchased DiscoveRx KINOMEscan

[19] = biological target: T19, CDK8 (Homo sapiens, UniProt P49336); assay: KinomeScan; type: binding; conditions: read-out: % control
T19 construct: purchased DiscoveRx KINOMEscan

[20] = biological target: T20, MAPKAPK2 (Homo sapiens, UniProt P49137); assay: KinomeScan; type: binding; conditions: read-out: % control
T20 construct: purchased DiscoveRx KINOMEscan

[21] = biological target: T21, TESK1 (Homo sapiens, UniProt Q15569); assay: KinomeScan; type: binding; conditions: read-out: % control
T21 construct: purchased DiscoveRx KINOMEscan

[22] = biological target: T22, MRCKA (Homo sapiens, UniProt Q5VT25); assay: KinomeScan; type: binding; conditions: read-out: % control
T22 construct: purchased DiscoveRx KINOMEscan

[23] = biological target: T23, BLK (Homo sapiens, UniProt P51451); assay: KinomeScan; type: binding; conditions: read-out: % control
T23 construct: purchased Invitrogen (SelectScreen service)

[24] = biological target: T24, SIK2 (Homo sapiens, UniProt Q9H0K1); assay: KinomeScan; type: binding; conditions: read-out: % control
T24 construct: purchased DiscoveRx KINOMEscan

[25] = biological target: T25, ULK3 (Homo sapiens, UniProt Q6PHR2); assay: KinomeScan; type: binding; conditions: read-out: % control
T25 construct: purchased DiscoveRx KINOMEscan

[26] = test system: BaF3-IGF1R; assay: Anti-proliferative effects, IGF1R transformed isogenic BaF3 cells; type: cell-based; conditions: Mus musculus, read-out: IC50 (anti-proliferative; GI50)
[27] = biological target: T26, MAP3K15 (Homo sapiens, UniProt Q6ZN16); assay: KinomeScan; type: binding; conditions: read-out: % control
T26 construct: purchased DiscoveRx KINOMEscan

[28] = biological target: T27, CAMK2D (Homo sapiens, UniProt Q13557); assay: KinomeScan; type: binding; conditions: read-out: % control
T27 construct: purchased DiscoveRx KINOMEscan

[29] = biological target: T28, AKT3 (Homo sapiens, UniProt Q9Y243); assay: KinomeScan; type: binding; conditions: read-out: % control
T28 construct: purchased DiscoveRx KINOMEscan

[30] = biological target: T29, RIPK2 (Homo sapiens, UniProt O43353); assay: KinomeScan; type: binding; conditions: read-out: % control
T29 construct: purchased DiscoveRx KINOMEscan

[31] = biological target: T30, AKT2 (Homo sapiens, UniProt P31751); assay: KinomeScan; type: binding; conditions: read-out: % control
T30 construct: purchased DiscoveRx KINOMEscan

[32] = biological target: T31, PCTK2 (Homo sapiens, UniProt Q00537); assay: KinomeScan; type: binding; conditions: read-out: % control
T31 construct: purchased DiscoveRx KINOMEscan

[33] = biological target: T32, MAP3K2 (Homo sapiens, UniProt Q9Y2U5); assay: KinomeScan; type: binding; conditions: read-out: % control
T32 construct: purchased DiscoveRx KINOMEscan

[34] = biological target: T33, MARK1 (Homo sapiens, UniProt Q9P0L2); assay: KinomeScan; type: binding; conditions: read-out: % control
T33 construct: purchased DiscoveRx KINOMEscan

[35] = biological target: T34, TAOK2 (Homo sapiens, UniProt Q9UL54); assay: KinomeScan; type: binding; conditions: read-out: % control
T34 construct: purchased DiscoveRx KINOMEscan

[36] = biological target: T35, TGFBR1 (Homo sapiens, UniProt P36897); assay: KinomeScan; type: binding; conditions: read-out: % control
T35 construct: purchased DiscoveRx KINOMEscan

[37] = biological target: T36, FES (Homo sapiens, UniProt P07332); assay: KinomeScan; type: binding; conditions: read-out: % control
T36 construct: purchased DiscoveRx KINOMEscan

[38] = biological target: T37, KIT (Homo sapiens, UniProt P10721); assay: KinomeScan; type: binding; conditions: read-out: % control
T37 construct: purchased DiscoveRx KINOMEscan

[39] = biological target: T38, EGFR(T790M) (Homo sapiens, UniProt P00533, T790M); assay: KinomeScan; type: binding; conditions: read-out: % control
T38 construct: purchased DiscoveRx KINOMEscan

[40] = biological target: T39, PIK3CB (Homo sapiens, UniProt P42338); assay: KinomeScan; type: binding; conditions: read-out: % control
T39 construct: purchased DiscoveRx KINOMEscan

[41] = biological target: T40, CTK (Homo sapiens, UniProt P42679); assay: KinomeScan; type: binding; conditions: read-out: % control
T40 construct: purchased DiscoveRx KINOMEscan

[42] = biological target: T41, FGFR3(G697C) (Homo sapiens, UniProt P22607, G697C); assay: KinomeScan; type: binding; conditions: read-out: % control
T41 construct: purchased DiscoveRx KINOMEscan

[43] = biological target: T42, EGFR(L861Q) (Homo sapiens, UniProt P00533, L861Q); assay: KinomeScan; type: binding; conditions: read-out: % control
T42 construct: purchased DiscoveRx KINOMEscan

T30 sequence (P31751 whole entry): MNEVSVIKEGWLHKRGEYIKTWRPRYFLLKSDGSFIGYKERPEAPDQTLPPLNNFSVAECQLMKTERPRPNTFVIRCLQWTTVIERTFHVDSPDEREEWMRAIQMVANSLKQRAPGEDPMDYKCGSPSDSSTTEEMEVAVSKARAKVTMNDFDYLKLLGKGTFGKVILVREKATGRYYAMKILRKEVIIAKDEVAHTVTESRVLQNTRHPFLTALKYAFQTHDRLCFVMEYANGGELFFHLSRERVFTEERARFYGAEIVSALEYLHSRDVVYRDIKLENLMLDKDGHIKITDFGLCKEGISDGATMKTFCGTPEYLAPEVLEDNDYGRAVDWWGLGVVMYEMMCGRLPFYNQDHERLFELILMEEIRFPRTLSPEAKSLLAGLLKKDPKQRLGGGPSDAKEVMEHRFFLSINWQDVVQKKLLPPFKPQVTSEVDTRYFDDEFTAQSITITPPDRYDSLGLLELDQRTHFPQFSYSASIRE
T41 sequence (P22607 23-806 G697C): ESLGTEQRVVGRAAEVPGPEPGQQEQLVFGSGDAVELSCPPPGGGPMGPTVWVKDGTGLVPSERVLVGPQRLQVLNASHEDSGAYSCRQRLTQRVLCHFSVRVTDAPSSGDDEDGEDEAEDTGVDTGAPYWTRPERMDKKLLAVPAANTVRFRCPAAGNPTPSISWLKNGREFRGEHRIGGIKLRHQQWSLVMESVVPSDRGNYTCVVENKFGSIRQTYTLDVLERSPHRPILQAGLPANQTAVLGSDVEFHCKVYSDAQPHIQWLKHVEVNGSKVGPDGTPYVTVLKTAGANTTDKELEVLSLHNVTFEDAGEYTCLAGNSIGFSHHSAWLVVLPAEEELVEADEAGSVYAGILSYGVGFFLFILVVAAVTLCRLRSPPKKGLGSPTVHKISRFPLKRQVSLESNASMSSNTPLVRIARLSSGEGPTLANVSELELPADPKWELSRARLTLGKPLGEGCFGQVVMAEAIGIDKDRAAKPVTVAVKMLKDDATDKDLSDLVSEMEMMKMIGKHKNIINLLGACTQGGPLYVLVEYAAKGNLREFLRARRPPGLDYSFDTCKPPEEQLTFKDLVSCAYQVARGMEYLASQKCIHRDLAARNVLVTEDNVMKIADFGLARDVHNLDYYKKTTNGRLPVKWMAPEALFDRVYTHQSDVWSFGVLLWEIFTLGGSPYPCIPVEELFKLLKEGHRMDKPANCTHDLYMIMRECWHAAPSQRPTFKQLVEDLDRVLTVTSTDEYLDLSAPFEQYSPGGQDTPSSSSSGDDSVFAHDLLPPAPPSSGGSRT
T23 sequence (P51451 whole entry): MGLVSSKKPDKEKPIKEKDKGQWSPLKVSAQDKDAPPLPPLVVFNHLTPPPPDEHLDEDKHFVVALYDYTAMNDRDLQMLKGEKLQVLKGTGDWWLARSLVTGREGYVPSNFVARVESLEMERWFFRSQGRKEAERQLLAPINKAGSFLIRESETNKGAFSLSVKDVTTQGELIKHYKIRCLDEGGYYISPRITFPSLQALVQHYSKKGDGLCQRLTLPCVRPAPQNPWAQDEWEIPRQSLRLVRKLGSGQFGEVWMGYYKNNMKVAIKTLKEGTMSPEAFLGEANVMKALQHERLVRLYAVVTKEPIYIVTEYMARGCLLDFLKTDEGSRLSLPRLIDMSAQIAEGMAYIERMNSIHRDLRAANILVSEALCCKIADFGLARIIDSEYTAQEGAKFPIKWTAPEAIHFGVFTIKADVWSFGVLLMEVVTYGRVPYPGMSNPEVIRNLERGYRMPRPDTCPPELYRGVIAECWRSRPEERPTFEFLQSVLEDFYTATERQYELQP
T26 sequence (Q6ZN16 whole entry): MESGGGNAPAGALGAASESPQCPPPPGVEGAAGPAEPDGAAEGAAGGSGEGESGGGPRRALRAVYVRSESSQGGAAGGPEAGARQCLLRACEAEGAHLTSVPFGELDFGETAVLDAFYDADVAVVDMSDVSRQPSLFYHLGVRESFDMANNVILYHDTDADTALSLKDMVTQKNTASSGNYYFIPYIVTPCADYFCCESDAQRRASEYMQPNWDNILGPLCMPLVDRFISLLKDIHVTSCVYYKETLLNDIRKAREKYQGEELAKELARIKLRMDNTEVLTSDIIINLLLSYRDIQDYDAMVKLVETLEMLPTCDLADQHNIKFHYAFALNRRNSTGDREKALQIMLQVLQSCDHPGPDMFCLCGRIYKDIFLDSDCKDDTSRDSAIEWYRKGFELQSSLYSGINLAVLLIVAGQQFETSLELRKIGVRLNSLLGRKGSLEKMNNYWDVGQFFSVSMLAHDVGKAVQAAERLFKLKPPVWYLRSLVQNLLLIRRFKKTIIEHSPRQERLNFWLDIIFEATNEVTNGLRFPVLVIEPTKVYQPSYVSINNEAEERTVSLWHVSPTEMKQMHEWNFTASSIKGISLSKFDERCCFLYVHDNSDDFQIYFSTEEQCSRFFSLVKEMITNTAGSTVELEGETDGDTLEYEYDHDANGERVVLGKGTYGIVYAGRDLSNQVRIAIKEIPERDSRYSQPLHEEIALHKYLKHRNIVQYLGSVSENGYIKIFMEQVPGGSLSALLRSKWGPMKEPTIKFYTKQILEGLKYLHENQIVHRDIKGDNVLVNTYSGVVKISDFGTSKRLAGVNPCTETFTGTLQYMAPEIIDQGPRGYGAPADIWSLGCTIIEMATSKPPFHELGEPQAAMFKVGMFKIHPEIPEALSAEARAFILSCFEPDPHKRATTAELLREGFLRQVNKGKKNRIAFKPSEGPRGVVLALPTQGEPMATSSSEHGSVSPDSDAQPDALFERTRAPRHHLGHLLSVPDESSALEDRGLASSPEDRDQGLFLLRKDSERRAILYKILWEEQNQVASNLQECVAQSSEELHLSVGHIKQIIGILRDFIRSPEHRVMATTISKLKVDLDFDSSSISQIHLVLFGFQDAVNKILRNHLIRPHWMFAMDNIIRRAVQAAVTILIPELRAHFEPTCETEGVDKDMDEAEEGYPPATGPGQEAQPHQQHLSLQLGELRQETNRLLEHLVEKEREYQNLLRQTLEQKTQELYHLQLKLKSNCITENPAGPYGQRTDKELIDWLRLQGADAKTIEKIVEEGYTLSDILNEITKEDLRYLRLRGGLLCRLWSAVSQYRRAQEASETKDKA
T24 sequence (Q9H0K1 whole entry): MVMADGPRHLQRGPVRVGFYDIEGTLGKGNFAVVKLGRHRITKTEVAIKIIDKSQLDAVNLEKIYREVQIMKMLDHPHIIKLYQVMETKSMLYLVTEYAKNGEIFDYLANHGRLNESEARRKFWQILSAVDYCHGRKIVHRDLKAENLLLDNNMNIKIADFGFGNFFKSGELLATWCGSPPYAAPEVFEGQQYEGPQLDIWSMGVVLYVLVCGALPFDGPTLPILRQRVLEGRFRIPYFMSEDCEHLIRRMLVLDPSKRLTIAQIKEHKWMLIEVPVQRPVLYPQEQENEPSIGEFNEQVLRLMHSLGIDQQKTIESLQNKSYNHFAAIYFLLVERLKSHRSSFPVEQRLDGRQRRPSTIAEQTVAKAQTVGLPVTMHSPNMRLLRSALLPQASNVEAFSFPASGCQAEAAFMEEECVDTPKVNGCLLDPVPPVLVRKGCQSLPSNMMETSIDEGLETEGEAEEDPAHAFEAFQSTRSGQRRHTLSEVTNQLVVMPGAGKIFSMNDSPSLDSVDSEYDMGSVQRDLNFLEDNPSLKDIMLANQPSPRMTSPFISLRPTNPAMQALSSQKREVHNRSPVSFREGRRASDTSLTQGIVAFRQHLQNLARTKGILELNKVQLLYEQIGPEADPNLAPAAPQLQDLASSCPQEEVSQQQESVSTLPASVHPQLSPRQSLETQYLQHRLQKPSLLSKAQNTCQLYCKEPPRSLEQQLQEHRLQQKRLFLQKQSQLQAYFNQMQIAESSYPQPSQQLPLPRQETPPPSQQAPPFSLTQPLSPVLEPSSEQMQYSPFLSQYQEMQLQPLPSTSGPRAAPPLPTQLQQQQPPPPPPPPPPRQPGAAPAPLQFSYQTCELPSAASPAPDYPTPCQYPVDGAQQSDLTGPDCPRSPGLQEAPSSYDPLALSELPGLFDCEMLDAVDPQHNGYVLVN
T28 sequence (Q9Y243 whole entry): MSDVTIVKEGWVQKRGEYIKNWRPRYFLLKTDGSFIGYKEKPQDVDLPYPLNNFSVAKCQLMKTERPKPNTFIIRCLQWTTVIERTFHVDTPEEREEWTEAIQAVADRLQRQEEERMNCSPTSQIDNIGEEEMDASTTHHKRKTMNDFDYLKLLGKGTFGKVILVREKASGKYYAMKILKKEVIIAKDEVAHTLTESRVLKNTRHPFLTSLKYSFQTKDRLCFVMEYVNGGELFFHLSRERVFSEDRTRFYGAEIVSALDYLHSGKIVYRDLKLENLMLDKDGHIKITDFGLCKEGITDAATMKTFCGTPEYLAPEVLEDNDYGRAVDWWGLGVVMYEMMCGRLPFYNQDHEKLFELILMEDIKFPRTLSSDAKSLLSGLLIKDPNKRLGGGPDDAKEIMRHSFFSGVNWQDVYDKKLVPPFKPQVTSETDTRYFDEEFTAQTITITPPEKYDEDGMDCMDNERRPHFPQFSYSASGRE
T25 sequence (Q6PHR2 whole entry): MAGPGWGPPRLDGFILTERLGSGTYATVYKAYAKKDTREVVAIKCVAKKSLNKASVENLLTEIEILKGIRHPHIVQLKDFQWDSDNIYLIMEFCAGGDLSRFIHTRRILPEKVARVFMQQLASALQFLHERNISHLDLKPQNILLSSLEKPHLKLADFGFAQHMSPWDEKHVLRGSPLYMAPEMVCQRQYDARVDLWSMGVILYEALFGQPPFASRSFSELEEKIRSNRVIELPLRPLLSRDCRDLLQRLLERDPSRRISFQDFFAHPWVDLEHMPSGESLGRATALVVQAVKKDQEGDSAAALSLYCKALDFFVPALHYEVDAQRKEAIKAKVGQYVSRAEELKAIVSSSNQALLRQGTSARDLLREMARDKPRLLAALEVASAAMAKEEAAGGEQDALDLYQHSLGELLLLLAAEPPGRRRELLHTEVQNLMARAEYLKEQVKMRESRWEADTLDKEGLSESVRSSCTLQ

Structure (SMILES): C=CC(=O)N1CCC[C@@H](n2nc(-c3ccc(OCc4cccc(C)n4)c(Cl)c3)c3c(N)ncnc32)C1 [CHMFL-EGFR-26]
- remaining binding at 1 µM [1]: 23%
- remaining binding at 1 µM [2]: 100%
- remaining binding at 1 µM [3]: 5.8%
- remaining binding at 1 µM [4]: 77%
- remaining binding at 1 µM [5]: 100%
- remaining binding at 1 µM [6]: 100%
- remaining binding at 1 µM [7]: 100%
- remaining binding at 1 µM [8]: 85%
- remaining binding at 1 µM [9]: 70%
- remaining binding at 1 µM [10]: 97%
- remaining binding at 1 µM [11]: 100%
- remaining binding at 1 µM [12]: 94%
- remaining binding at 1 µM [13]: 82%
- remaining binding at 1 µM [14]: 100%
- remaining binding at 1 µM [15]: 91%
- remaining binding at 1 µM [16]: 86%
- remaining binding at 1 µM [17]: 90%
- remaining binding at 1 µM [18]: 16%
- remaining binding at 1 µM [19]: 92%
- remaining binding at 1 µM [20]: 89%
- remaining binding at 1 µM [21]: 93%
- remaining binding at 1 µM [22]: 64%
- remaining binding at 1 µM [23]: 0.35%
- remaining binding at 1 µM [24]: 93%
- remaining binding at 1 µM [25]: 92%
- pIC50 [26]: 5.44
- remaining binding at 1 µM [27]: 100%
- remaining binding at 1 µM [28]: 91%
- remaining binding at 1 µM [29]: 59%
- remaining binding at 1 µM [30]: 13%
- remaining binding at 1 µM [31]: 86%
- remaining binding at 1 µM [32]: 89%
- remaining binding at 1 µM [33]: 52%
- remaining binding at 1 µM [34]: 100%
- remaining binding at 1 µM [35]: 78%
- remaining binding at 1 µM [36]: 7%
- remaining binding at 1 µM [37]: 97%
- remaining binding at 1 µM [38]: 100%
- remaining binding at 1 µM [39]: 0.25%
- remaining binding at 1 µM [40]: 94%
- remaining binding at 1 µM [41]: 95%
- remaining binding at 1 µM [42]: 100%
- remaining binding at 1 µM [43]: 0.9%
